Active and inactive are the calls of the source. The rule behind the calls is not given here.
Tests used:
P388 [1] = experiment: Antitumor activity in BDF1 mouse bearing P388 cells assessed as mean survival days at 12.5 mg/kg/day, ip; format: functional; details: route intraperitoneal
P388 [2] = experiment: Antitumor activity in BDF1 mouse bearing P388 cells assessed as number of cured mouse at 12.5 mg/kg/day, ip after 90 days; format: functional, organism-based
L1210 [3] = experiment: Antitumor activity in BDF1 mouse L1210 cells assessed as number of cured mouse at 12.5 mg/kg/day, ip after 90 days; format: functional, organism-based
Mus musculus = experiment: (§1) Acute toxicity in ip dosed BALB/c mouse after 30 days; format: organism-based; details: in vivo, 720 h
[4] = as §1; format: organism-based; details: BALB/c, in vivo
P388 [5] = experiment: Increase in median life span in BDF1 mouse bearing P388 cells at 12.5 mg/kg/day, ip relative to corn oil; format: functional; details: route intraperitoneal
L1210 [6] = experiment: Antitumor activity in BDF1 mouse L1210 cells assessed as mean survival days at 12.5 mg/kg/day, ip; format: functional; details: route intraperitoneal
L1210 [7] = experiment: Increase in median life span in BDF1 mouse L1210 cells at 12.5 mg/kg/day, ip relative to corn oil; format: functional; details: route intraperitoneal
P388 [8] = experiment: Antitumor activity in BDF1 mouse bearing P388 cells assessed as mean survival days at 50 mg/kg/day, ip; format: functional; details: route intraperitoneal
P388 [9] = experiment: Increase in median life span in BDF1 mouse bearing P388 cells at 50 mg/kg/day, ip relative to corn oil; format: functional; details: route intraperitoneal
L1210 [10] = experiment: Antitumor activity in BDF1 mouse L1210 cells assessed as mean survival days at 50 mg/kg/day, ip; format: functional; details: route intraperitoneal
L1210 [11] = experiment: Increase in median life span in BDF1 mouse L1210 cells at 50 mg/kg/day, ip relative to corn oil; format: functional; details: route intraperitoneal
L1210 [12] = experiment: Antitumor activity in BDF1 mouse L1210 cells assessed as number of cured mouse at 50 mg/kg/day, ip after 90 days; format: functional, organism-based
P388 [13] = experiment: Antitumor activity in BDF1 mouse bearing P388 cells assessed as number of cured mouse at 50 mg/kg/day, ip after 90 days; format: functional, organism-based
L1210 [14] = experiment: Increase in median life span in BDF1 mouse L1210 cells at 30 mg/kg/day, ip relative to corn oil; format: functional; details: route intraperitoneal
L1210 [15] = experiment: Antitumor activity in BDF1 mouse L1210 cells assessed as mean survival days at 30 mg/kg/day, ip; format: functional; details: route intraperitoneal
P388 [16] = experiment: Antitumor activity in BDF1 mouse bearing P388 cells assessed as mean survival days at 30 mg/kg/day, ip; format: functional; details: route intraperitoneal
P388 [17] = experiment: Increase in median life span in BDF1 mouse bearing P388 cells at 30 mg/kg/day, ip relative to corn oil; format: functional; details: route intraperitoneal
L1210 [18] = experiment: Antitumor activity in BDF1 mouse L1210 cells assessed as number of cured mouse at 30 mg/kg/day, ip after 90 days; format: functional, organism-based
L1210 [19] = experiment: Increase in median life span in BDF1 mouse L1210 cells at 200 mg/kg/day, ip relative to corn oil; format: functional; details: route intraperitoneal
P388 [20] = experiment: Antitumor activity in BDF1 mouse bearing P388 cells assessed as number of cured mouse at 200 mg/kg/day, ip after 90 days; format: functional, organism-based
L1210 [21] = experiment: Antitumor activity in BDF1 mouse L1210 cells assessed as mean survival days at 200 mg/kg/day, ip; format: functional; details: route intraperitoneal
P388 [22] = experiment: Antitumor activity in BDF1 mouse bearing P388 cells assessed as mean survival days at 200 mg/kg/day, ip; format: functional; details: route intraperitoneal
L1210 [23] = experiment: Antitumor activity in BDF1 mouse L1210 cells assessed as number of cured mouse at 200 mg/kg/day, ip after 90 days; format: functional, organism-based
P388 [24] = experiment: Increase in median life span in BDF1 mouse bearing P388 cells at 200 mg/kg/day, ip relative to corn oil; format: functional; details: route intraperitoneal
P388 [25] = experiment: Antitumor activity in BDF1 mouse bearing P388 cells assessed as mean survival days at 120 mg/kg/day, ip; format: functional; details: route intraperitoneal
L1210 [26] = experiment: Antitumor activity in BDF1 mouse L1210 cells assessed as number of cured mouse at 120 mg/kg/day, ip after 90 days; format: functional, organism-based
P388 [27] = experiment: Increase in median life span in BDF1 mouse bearing P388 cells at 120 mg/kg/day, ip relative to corn oil; format: functional; details: route intraperitoneal
L1210 [28] = experiment: Increase in median life span in BDF1 mouse L1210 cells at 120 mg/kg/day, ip relative to corn oil; format: functional; details: route intraperitoneal
L1210 [29] = experiment: Antitumor activity in BDF1 mouse L1210 cells assessed as mean survival days at 120 mg/kg/day, ip; format: functional; details: route intraperitoneal
P388 [30] = experiment: Increase in median life span in BDF1 mouse bearing P388 cells at 7.5 mg/kg/day, ip relative to corn oil; format: functional; details: route intraperitoneal
P388 [31] = experiment: Antitumor activity in BDF1 mouse bearing P388 cells assessed as number of cured mouse at 7.5 mg/kg/day, ip after 90 days; format: functional, organism-based
L1210 [32] = experiment: Increase in median life span in BDF1 mouse L1210 cells at 7.5 mg/kg/day, ip relative to corn oil; format: functional; details: route intraperitoneal
L1210 [33] = experiment: Antitumor activity in BDF1 mouse L1210 cells assessed as number of cured mouse at 7.5 mg/kg/day, ip after 90 days; format: functional, organism-based
L1210 [34] = experiment: Antitumor activity in BDF1 mouse L1210 cells assessed as mean survival days at 7.5 mg/kg/day, ip; format: functional; details: route intraperitoneal
P388 [35] = experiment: Antitumor activity in BDF1 mouse bearing P388 cells assessed as mean survival days at 7.5 mg/kg/day, ip; format: functional; details: route intraperitoneal
P388 [36] = experiment: Antitumor activity in BDF1 mouse bearing P388 cells assessed as number of cured mouse at 22 mg/kg/day, ip after 90 days; format: functional, organism-based
P388 [37] = experiment: Increase in median life span in BDF1 mouse bearing P388 cells at 22 mg/kg/day, ip relative to corn oil; format: functional; details: route intraperitoneal
L1210 [38] = experiment: Increase in median life span in BDF1 mouse L1210 cells at 22 mg/kg/day, ip relative to corn oil; format: functional; details: route intraperitoneal
L1210 [39] = experiment: Antitumor activity in BDF1 mouse L1210 cells assessed as mean survival days at 22 mg/kg/day, ip; format: functional; details: route intraperitoneal
P388 [40] = experiment: Antitumor activity in BDF1 mouse bearing P388 cells assessed as mean survival days at 22 mg/kg/day, ip; format: functional; details: route intraperitoneal
L1210 [41] = experiment: Antitumor activity in BDF1 mouse L1210 cells assessed as number of cured mouse at 22 mg/kg/day, ip after 90 days; format: functional, organism-based

CC(=O)N[C@H]1CC[C@H]2[C@@H]3C(=O)C=C4C[C@@H](OC(=O)Cc5ccc(N(CCCl)CCCl)cc5)CC[C@]4(C)[C@H]3CC[C@]12C
Survival (P388 [1]): 29.8 days
Activity (P388 [2]): inactive
Activity (L1210 [3]): inactive
LD10 (Mus musculus): 25 mg/kg
LD50 at 720 h [4]: 75 mg/kg
Activity (P388 [5]): 314%
Survival (L1210 [6]): 26.3 days
Activity (L1210 [7]): 243%

CC(=O)N[C@H]1CC[C@H]2[C@@H]3NC(=O)C=C4C[C@@H](OC(=O)CCCc5ccc(N(CCCl)CCCl)cc5)CC[C@]4(C)[C@H]3CC[C@]12C
Survival (P388 [8]): 22 days
Activity (P388 [9]): 231%
Survival (L1210 [10]): 15.2 days
Activity (L1210 [11]): 140.7%
Activity (L1210 [12]): inactive
LD10 (Mus musculus): 100 mg/kg
LD50 at 720 h [4]: 180 mg/kg
Activity (P388 [13]): inactive

CC(=O)N[C@H]1CC[C@H]2[C@@H]3NC(=O)C=C4C[C@@H](OC(=O)Cc5ccc(N(CCCl)CCCl)cc5)CC[C@]4(C)[C@H]3CC[C@]12C
Activity (L1210 [14]): 144.4%
Survival (L1210 [15]): 15.6 days
LD10 (Mus musculus): 60 mg/kg
LD50 at 720 h [4]: 80 mg/kg
Survival (P388 [16]): 21 days
Activity (P388 [17]): 221%
Activity (L1210 [18]): inactive

CC(=O)N[C@H]1CC[C@H]2[C@@H]3C(=O)C=C4C[C@@H](OC(=O)c5ccc(C)c(N(CCCl)CCCl)c5)CC[C@]4(C)[C@H]3CC[C@]12C
Activity (L1210 [19]): 127%
Activity (P388 [20]): inactive
Survival (L1210 [21]): 13.7 days
LD10 (Mus musculus): 400 mg/kg
LD50 at 720 h [4]: 600 mg/kg
Survival (P388 [22]): 14.6 days
Activity (L1210 [23]): inactive
Activity (P388 [24]): 153%

CC(=O)N[C@H]1CC[C@H]2[C@@H]3NC(=O)C=C4C[C@@H](OC(=O)c5ccc(C)c(N(CCCl)CCCl)c5)CC[C@]4(C)[C@H]3CC[C@]12C
LD10 (Mus musculus): 240 mg/kg
LD50 at 720 h [4]: 280 mg/kg
Survival (P388 [25]): 28.5 days
Activity (L1210 [26]): inactive
Activity (P388 [27]): 300%
Activity (L1210 [28]): 189.8%
Survival (L1210 [29]): 20.5 days

O=C(O)CCCc1ccc(N(CCCl)CCCl)cc1 [CHLORAMBUCIL]
Activity (P388 [30]): 155%
Activity (P388 [31]): inactive
Activity (L1210 [32]): 114%
LD10 (Mus musculus): 15 mg/kg
LD50 at 720 h [4]: 24 mg/kg
Activity (L1210 [33]): inactive
Survival (L1210 [34]): 12.3 days
Survival (P388 [35]): 14.7 days

CC(=O)N[C@H]1CC[C@H]2[C@@H]3C(=O)C=C4C[C@@H](OC(=O)CCCc5ccc(N(CCCl)CCCl)cc5)CC[C@]4(C)[C@H]3CC[C@]12C
Activity (P388 [36]): inactive
Activity (P388 [37]): 198%
Activity (L1210 [38]): 150%
LD10 (Mus musculus): 44 mg/kg
LD50 at 720 h [4]: 87 mg/kg
Survival (L1210 [39]): 16.2 days
Survival (P388 [40]): 18.8 days
Activity (L1210 [41]): inactive

Source: ChEMBL document CHEMBL1157172, “Rational design, synthesis, and in vivo evaluation of the antileukemic activity of six new alkylating steroidal esters” (Bioorg Med Chem, 2008)
